Publication PMC9481151, “Discovery of new symmetrical and asymmetrical nitrile-containing 1,4-dihydropyridine derivatives as dual kinases and P-glycoprotein inhibitors: synthesis, in vitro assays, and in silico studies” (Journal of Enzyme Inhibition and Medicinal Chemistry, 2022)

How the values were obtained:
SNB-75 = experiment: NCI single dose (10 µM) SRB screen; type: cell-based, human; conditions: CNS cancer, 48 h
HT29 = experiment: NCI single dose (10 µM) SRB screen; type: cell-based, human; conditions: colon cancer, 48 h
SNB-19 = experiment: NCI single dose (10 µM) SRB screen; type: cell-based, human; conditions: CNS cancer, 48 h
CAKI-1 = experiment: NCI single dose (10 µM) SRB screen; type: cell-based, human; conditions: renal cancer, 48 h
CCRF-CEM = experiment: NCI single dose (10 µM) SRB screen; type: cell-based, human; conditions: leukaemia, 48 h
MDA-MB-468 = experiment: NCI single dose (10 µM) SRB screen; type: cell-based, human; conditions: breast cancer, 48 h
SW-620 = experiment: NCI single dose (10 µM) SRB screen; type: cell-based, human; conditions: colon cancer, 48 h
MALME-3M = experiment: NCI single dose (10 µM) SRB screen; type: cell-based, human; conditions: melanoma, 48 h
MOLT-4 = experiment: NCI single dose (10 µM) SRB screen; type: cell-based, human; conditions: leukaemia, 48 h
Aspergillus flavus = experiment: Agar well diffusion method
Escherichia coli = experiment: Agar well diffusion method
SF-295 = experiment: NCI single dose (10 µM) SRB screen; type: cell-based, human; conditions: CNS cancer, 48 h
TK-10 = experiment: NCI single dose (10 µM) SRB screen; type: cell-based, human; conditions: renal cancer, 48 h
NCI-H522 = experiment: NCI single dose (10 µM) SRB screen; type: cell-based, human; conditions: non-small cell lung cancer, 48 h
UACC-257 = experiment: NCI single dose (10 µM) SRB screen; type: cell-based, human; conditions: melanoma, 48 h
NCI/ADR-RES = experiment: NCI single dose (10 µM) SRB screen; type: cell-based, human; conditions: ovarian cancer, 48 h
NCI-H460 = experiment: NCI single dose (10 µM) SRB screen; type: cell-based, human; conditions: non-small cell lung cancer, 48 h
NCI-H23 = experiment: NCI single dose (10 µM) SRB screen; type: cell-based, human; conditions: non-small cell lung cancer, 48 h
M14 = experiment: NCI single dose (10 µM) SRB screen; type: cell-based, human; conditions: melanoma, 48 h
SF-539 = experiment: NCI single dose (10 µM) SRB screen; type: cell-based, human; conditions: CNS cancer, 48 h
RXF 393 = experiment: NCI single dose (10 µM) SRB screen; type: cell-based, human; conditions: renal cancer, 48 h
SN12C = experiment: NCI single dose (10 µM) SRB screen; type: cell-based, human; conditions: renal cancer, 48 h
LOX IMVI = experiment: NCI single dose (10 µM) SRB screen; type: cell-based, human; conditions: melanoma, 48 h
NCI-H226 = experiment: NCI single dose (10 µM) SRB screen; type: cell-based, human; conditions: non-small cell lung cancer, 48 h
ACHN = experiment: NCI single dose (10 µM) SRB screen; type: cell-based, human; conditions: renal cancer, 48 h
MCF7 = experiment: NCI single dose (10 µM) SRB screen; type: cell-based, human; conditions: breast cancer, 48 h
SR = experiment: NCI single dose (10 µM) SRB screen; type: cell-based, human; conditions: leukaemia, 48 h
OVCAR-5 = experiment: NCI single dose (10 µM) SRB screen; type: cell-based, human; conditions: ovarian cancer, 48 h
A498 = experiment: NCI single dose (10 µM) SRB screen; type: cell-based, human; conditions: renal cancer, 48 h
786-0 = experiment: NCI single dose (10 µM) SRB screen; type: cell-based, human; conditions: renal cancer, 48 h
HL-60(TB) = experiment: NCI single dose (10 µM) SRB screen; type: cell-based, human; conditions: leukaemia, 48 h
Bacillus subtilis = experiment: Agar well diffusion method
COLO 205 = experiment: NCI single dose (10 µM) SRB screen; type: cell-based, human; conditions: colon cancer, 48 h
NCI-H322M = experiment: NCI single dose (10 µM) SRB screen; type: cell-based; conditions: non-small cell lung cancer, 48 h
KM12 = experiment: NCI single dose (10 µM) SRB screen; type: cell-based, human; conditions: colon cancer, 48 h
MDA-MB-435 = experiment: NCI single dose (10 µM) SRB screen; type: cell-based, human; conditions: melanoma, 48 h
NCI 60 cancer cell lines = experiment: NCI single dose (10 µM) SRB screen, mean over panel; type: cell-based, human; conditions: mean over 60 cell lines, 48 h
DU-145 = experiment: NCI single dose (10 µM) SRB screen; type: cell-based, human; conditions: prostate cancer, 48 h
A549/ATCC = experiment: NCI single dose (10 µM) SRB screen; type: cell-based, human; conditions: non-small cell lung cancer, 48 h
PC-3 = experiment: NCI single dose (10 µM) SRB screen; type: cell-based, human; conditions: prostate cancer, 48 h
OVCAR-3 = experiment: NCI single dose (10 µM) SRB screen; type: cell-based, human; conditions: ovarian cancer, 48 h
IGROV1 = experiment: NCI single dose (10 µM) SRB screen; type: cell-based, human; conditions: ovarian cancer, 48 h
SF-268 = experiment: NCI single dose (10 µM) SRB screen; type: cell-based, human; conditions: CNS cancer, 48 h
RPMI-8226 = experiment: NCI single dose (10 µM) SRB screen; type: cell-based, human; conditions: leukaemia, 48 h
HCT-116 = experiment: NCI single dose (10 µM) SRB screen; type: cell-based, human; conditions: colon cancer, 48 h
OVCAR-8 = experiment: NCI single dose (10 µM) SRB screen; type: cell-based, human; conditions: ovarian cancer, 48 h
SK-MEL-5 = experiment: NCI single dose (10 µM) SRB screen; type: cell-based, human; conditions: melanoma, 48 h
U251 = experiment: NCI single dose (10 µM) SRB screen; type: cell-based, human; conditions: CNS cancer, 48 h
OVCAR-4 = experiment: NCI single dose (10 µM) SRB screen; type: cell-based, human; conditions: ovarian cancer, 48 h
Staphylococcus aureus = experiment: Agar well diffusion method
SK-OV-3 = experiment: NCI single dose (10 µM) SRB screen; type: cell-based, human; conditions: ovarian cancer, 48 h
SK-MEL-28 = experiment: NCI single dose (10 µM) SRB screen; type: cell-based, human; conditions: melanoma, 48 h

CC1=C(C(=O)OCc2ccccc2)C(c2cccc(C#N)c2)C(C(=O)OCc2ccccc2)=C(C)N1 [Compound 1g, Dibenzyl 4-(3-cyanophenyl)-2,6-dimethyl-1,4-dihydropyridine-3,5-dicarboxylate]
GI% SNB-75 (SNB-75): 23% | GI% HT29 (HT29): 48% | GI% SNB-19 (SNB-19): 32% | GI% CAKI-1 (CAKI-1): 56% | GI% CCRF-CEM (CCRF-CEM): 54% | GI% MDA-MB-468 (MDA-MB-468): 62% | GI% SW-620 (SW-620): 65% | GI% MALME-3M (MALME-3M): 32% | GI% MOLT-4 (MOLT-4): 68% | zone of inhibition at 1000 µg/mL (Aspergillus flavus; Aspergillus flavus, 24 h, read-out: Diameter of inhibition zone, A. flavus): 14 mm | % activity index, A. flavus (Aspergillus flavus; relative to clotrimazole): 56% | zone of inhibition at 1000 µg/mL (Escherichia coli; Escherichia coli, 24 h, read-out: Diameter of inhibition zone, E. coli): 10 mm | % activity index, E. coli (Escherichia coli; relative to ciprofloxacin): 38.5% | GI% SF-295 (SF-295): 56% | GI% TK-10 (TK-10): – (Only GI% ≥ 10 are shown) | GI% NCI-H522 (NCI-H522): 46% | GI% UACC-257 (UACC-257): 36% | GI% NCI/ADR-RES (NCI/ADR-RES): 45% | GI% NCI-H460 (NCI-H460): 64% | GI% NCI-H23 (NCI-H23): 23% | GI% M14 (M14): 35% | GI% SF-539 (SF-539): 35% | GI% RXF 393 (RXF 393): 36% | GI% SN12C (SN12C): 32% | GI% LOX IMVI (LOX IMVI): 65% | GI% NCI-H226 (NCI-H226): 46% | GI% ACHN (ACHN): 52% | GI% MCF7 (MCF7): 53% | GI% SR (SR): 57% | GI% OVCAR-5 (OVCAR-5): 19% | GI% A498 (A498): 21% | GI% 786-0 (786-0): 32% | GI% HL-60(TB) (HL-60(TB)): 62% | zone of inhibition at 1000 µg/mL (Bacillus subtilis; Bacillus subtilis, 24 h, read-out: Diameter of inhibition zone, B. subtilis): 11 mm | % activity index, B. subtilis (Bacillus subtilis; relative to ciprofloxacin): 47.8% | GI% COLO 205 (COLO 205): 47% | GI% NCI-H322M (NCI-H322M): 15% | GI% KM12 (KM12): 45% | GI% MDA-MB-435 (MDA-MB-435): 36% | Mean GI% (NCI 60 cancer cell lines): 41% | GI% DU-145 (DU-145): 26% | GI% A549/ATCC (A549/ATCC): 45% | GI% PC-3 (PC-3): 76% | GI% OVCAR-3 (OVCAR-3): 23% | GI% IGROV1 (IGROV1): 45% | GI% SF-268 (SF-268): 38% | GI% RPMI-8226 (RPMI-8226): 65% | GI% HCT-116 (HCT-116): 76% | GI% OVCAR-8 (OVCAR-8): 41% | GI% SK-MEL-5 (SK-MEL-5): 55% | GI% U251 (U251): 49% | GI% OVCAR-4 (OVCAR-4): 33% | zone of inhibition at 1000 µg/mL (Staphylococcus aureus; Staphylococcus aureus, 24 h, read-out: Diameter of inhibition zone, S. aureus): 15 mm | % activity index, S. aureus (Staphylococcus aureus; relative to ciprofloxacin): 62.5% | GI% SK-OV-3 (SK-OV-3): – (Only GI% ≥ 10 are shown) | GI% SK-MEL-28 (SK-MEL-28): 34%
